Results from ChEMBL document CHEMBL1150531, “Acetylcholinesterase inhibition by fused dihydroquinazoline compounds” (Bioorg Med Chem Lett, 1996).

How the values were obtained:
Acetylcholinesterase [1] = target: T1, Acetylcholinesterase (Rattus norvegicus, UniProt P37136)
T1 sequence (P37136 whole entry): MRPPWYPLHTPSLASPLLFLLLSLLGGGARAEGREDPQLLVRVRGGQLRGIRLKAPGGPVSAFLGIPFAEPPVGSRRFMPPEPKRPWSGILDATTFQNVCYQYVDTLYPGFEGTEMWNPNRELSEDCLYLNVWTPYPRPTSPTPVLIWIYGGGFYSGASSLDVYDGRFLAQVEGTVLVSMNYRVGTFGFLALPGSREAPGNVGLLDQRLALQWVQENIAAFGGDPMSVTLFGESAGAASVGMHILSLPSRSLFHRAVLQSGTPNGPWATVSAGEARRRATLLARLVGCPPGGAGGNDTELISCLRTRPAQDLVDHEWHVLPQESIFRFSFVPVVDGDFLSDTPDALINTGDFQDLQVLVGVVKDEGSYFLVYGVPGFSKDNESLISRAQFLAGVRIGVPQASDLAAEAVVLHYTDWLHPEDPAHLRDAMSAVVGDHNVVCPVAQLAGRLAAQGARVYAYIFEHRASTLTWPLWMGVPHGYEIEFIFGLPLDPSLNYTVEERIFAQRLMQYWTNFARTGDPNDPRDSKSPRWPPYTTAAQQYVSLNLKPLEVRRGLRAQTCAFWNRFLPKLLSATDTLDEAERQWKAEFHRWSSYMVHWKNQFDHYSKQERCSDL
Description: Inhibitory activity against acetylcholinesterase in rat brain

Acetylcholinesterase [2] = target: Acetylcholinesterase (Homo sapiens, UniProt P22303)
Sequence of Acetylcholinesterase (Homo sapiens, UniProt P22303) (P22303 whole entry): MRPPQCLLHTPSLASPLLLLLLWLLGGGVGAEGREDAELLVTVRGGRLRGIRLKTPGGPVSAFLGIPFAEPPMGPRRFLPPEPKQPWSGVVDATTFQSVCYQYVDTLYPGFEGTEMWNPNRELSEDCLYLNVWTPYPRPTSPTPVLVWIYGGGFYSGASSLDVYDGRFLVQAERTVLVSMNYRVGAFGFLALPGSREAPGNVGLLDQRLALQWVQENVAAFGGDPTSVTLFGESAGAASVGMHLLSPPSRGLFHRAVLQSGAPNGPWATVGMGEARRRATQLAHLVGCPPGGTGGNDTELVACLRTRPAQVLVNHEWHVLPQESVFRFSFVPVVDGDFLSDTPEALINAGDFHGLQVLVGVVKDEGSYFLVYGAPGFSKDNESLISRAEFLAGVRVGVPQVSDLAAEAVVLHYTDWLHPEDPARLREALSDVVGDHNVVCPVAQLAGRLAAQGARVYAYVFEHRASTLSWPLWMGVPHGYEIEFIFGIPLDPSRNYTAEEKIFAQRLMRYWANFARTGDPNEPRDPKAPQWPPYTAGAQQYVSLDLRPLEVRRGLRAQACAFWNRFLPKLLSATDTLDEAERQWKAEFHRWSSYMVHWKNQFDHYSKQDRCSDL
Description: Inhibitory activity against acetylcholinesterase in human RBC

| Structure (SMILES) | IC50 (Acetylcholinesterase [1]) | IC50 (Acetylcholinesterase [2]) |
| --- | --- | --- |
| CCCCCCCNC(=O)Oc1ccc2c(c1)[C@]1(C)CCN(C)[C@@H]1N2C [EPTASTIGMINE] | 0.6 µM | 0.125 µM |
| c1ccc2c(c1)CN1CCCC1=N2 | 18 µM | 3.72 µM |
| c1ccc2c(c1)CN1CCCCCC1=N2 | 15 µM | 3.76 µM |
| Clc1cccc2c1CN1CCCCCC1=N2 | 4.75 µM | – |
| S=c1c2ccc(Cl)cc2nc2n1CCCCC2 | > 100 µM | > 100 µM |
| Clc1ccc2c(c1)CN1CCCCCC1=N2 | 9.3 µM | – |
| c1ccc2c(c1)CN1CCCCCCC1=N2 | 100 µM | 9.2 µM |
| C/C=C1\[C@H]2C=C(C)C[C@]1(N)c1ccc(=O)[nH]c1C2 [HUPERZINE A] | 0.094 µM | – |
| N=c1c2ccc(Cl)cc2nc2n1CCCCC2 | 35.9 µM | – |
| c1ccc2c(c1)CN1CCCCC1=N2 | > 100 µM | 3.66 µM |
| c1ccc2c(c1)CN1CCCCCCCC1=N2 | > 100 µM | 13.5 µM |
| O=c1c2ccc(Cl)cc2nc2n1CCCCC2 | > 100 µM | > 100 µM |
